Numbers after ± are expanded uncertainties.
Assay: xn = mol fraction of the nth substance listed
Details: 348.15 K, Liquid

CCO [ethanol] + O
mass density [kg/m3]
Details | 10000 kPa | 20000 kPa | 30000 kPa
x1 = 0.003 | – | 981.9 ± 0.3 | 986.1 ± 0.3
x1 = 0.0042 | – | 980.6 ± 0.3 | 984.8 ± 0.3
x1 = 0.0082 | – | 979.4 ± 0.3 | 983.6 ± 0.3
x1 = 0.0119 | – | 977.7 ± 0.3 | 981.9 ± 0.3
x1 = 0.0158 | – | 975.3 ± 0.3 | 979.4 ± 0.3
x1 = 0.0184 | – | 973.9 ± 0.3 | 978.1 ± 0.3
x1 = 0.0219 | – | 972.6 ± 0.3 | –
x1 = 0.0255 | – | 970.7 ± 0.3 | –
x1 = 0.0279 | – | 969.1 ± 0.3 | –
x1 = 0.0315 | – | 968 ± 0.3 | –
x1 = 0.0366 | – | 965.3 ± 0.3 | –
x1 = 0.0392 | – | 963.8 ± 0.3 | –
x1 = 0.0439 | – | 962.1 ± 0.3 | –
x1 = 0.0483 | 955.6 ± 0.3 | 959.9 ± 0.3 | –
x1 = 0.0516 | 954.6 ± 0.3 | 958.9 ± 0.3 | –
x1 = 0.0559 | 953.2 ± 0.3 | 957.5 ± 0.3 | –
x1 = 0.06 | 951.3 ± 0.3 | 955.8 ± 0.3 | –
x1 = 0.0652 | 949.1 ± 0.3 | 953.5 ± 0.3 | –
x1 = 0.0679 | 948.2 ± 0.3 | 952.5 ± 0.3 | –
x1 = 0.0722 | 946.1 ± 0.3 | 950.4 ± 0.3 | –
x1 = 0.0801 | 942.6 ± 0.3 | 947 ± 0.3 | –
x1 = 0.084 | 941.9 ± 0.3 | 946.3 ± 0.3 | –
x1 = 0.0879 | 939.9 ± 0.3 | 944.4 ± 0.3 | –
x1 = 0.0926 | 938.1 ± 0.3 | 942.6 ± 0.3 | –
x1 = 0.0958 | 936.8 ± 0.3 | 941.3 ± 0.3 | –
x1 = 0.1006 | 934.9 ± 0.3 | 939.4 ± 0.3 | –
x1 = 0.1111 | 930.7 ± 0.3 | 935.3 ± 0.3 | –
x1 = 0.1225 | 926.3 ± 0.3 | 931.1 ± 0.3 | –
x1 = 0.1296 | 923.6 ± 0.3 | 928.3 ± 0.3 | –
x1 = 0.1402 | 919.5 ± 0.3 | 924.4 ± 0.3 | –
x1 = 0.151 | 915.4 ± 0.3 | 920.3 ± 0.4 | –
x1 = 0.1601 | 912.1 ± 0.3 | 917.1 ± 0.4 | –
x1 = 0.1703 | 908.4 ± 0.3 | 913.5 ± 0.4 | –
x1 = 0.18 | 904.8 ± 0.3 | 910 ± 0.4 | –
x1 = 0.1903 | 901.3 ± 0.3 | 906.5 ± 0.4 | –
x1 = 0.1996 | 898.1 ± 0.3 | 903.4 ± 0.4 | –
x1 = 0.2269 | 888.9 ± 0.4 | 894.4 ± 0.4 | –
x1 = 0.2502 | 881.6 ± 0.4 | 887.3 ± 0.4 | –
x1 = 0.2745 | 874.2 ± 0.4 | 880.2 ± 0.4 | –
x1 = 0.3009 | 866.8 ± 0.4 | 872.9 ± 0.4 | –
x1 = 0.35 | 853.6 ± 0.4 | 860 ± 0.5 | –
x1 = 0.4034 | 840.7 ± 0.4 | 847.5 ± 0.5 | –
x1 = 0.4501 | 830.3 ± 0.4 | 837.4 ± 0.5 | –
x1 = 0.498 | 820.7 ± 0.4 | 828.1 ± 0.5 | –
x1 = 0.5501 | 811 ± 0.4 | 818.7 ± 0.5 | –
x1 = 0.5998 | 802.5 ± 0.4 | 810.5 ± 0.5 | –
x1 = 0.6489 | 794.6 ± 0.5 | 802.9 ± 0.6 | –
x1 = 0.6967 | 787.6 ± 0.5 | 796.1 ± 0.6 | –
x1 = 0.7475 | 780.7 ± 0.5 | 789.4 ± 0.6 | –
x1 = 0.7996 | 774 ± 0.5 | 783 ± 0.6 | –
x1 = 0.8484 | 768 ± 0.5 | 777.3 ± 0.6 | –
x1 = 0.8993 | 762.1 ± 0.5 | 771.6 ± 0.6 | –
x1 = 0.9503 | 756.7 ± 0.5 | 766.4 ± 0.6 | –
x1 = 1 | 751.2 ± 0.5 | 761.2 ± 0.6 | –

From the NIST ThermoML archive (doi:10.1016/j.fluid.2004.11.019)
